Assay results from DBAASP.
Converted amounts (≈) assume the structure as drawn.

How the values were obtained:
Test in all cases: ≥ marks a high value that may be exact or a test limit, other limits are often not marked, values filed in µg/mL are converted to µM
[1] = tested on: Aspergillus flavus KCTC 9471
[2] = tested on: Aspergillus fumigatus KCTC 6145
Bacillus subtilis = tested on: Bacillus subtilis
Botrytis cinerea = tested on: Botrytis cinerea
[3] = tested on: Candida albicans KCTC 7270
[4] = tested on: Escherichia coli O157:H7 ATCC 43895
Escherichia coli = tested on: Escherichia coli
Fusarium verticillioides = tested on: Fusarium verticillioides
[5] = tested on: Listeria monocytogenes KCTC 3710
Proteus vulgaris = tested on: Proteus vulgaris
Pseudomonas aeruginosa = tested on: Pseudomonas aeruginosa
Saccharomyces cerevisiae = tested on: Saccharomyces cerevisiae
Salmonella typhimurium = tested on: Salmonella typhimurium
Staphylococcus aureus = tested on: Staphylococcus aureus
[6] = tested on: Staphylococcus epidermidis
Trichosporon beigelii = tested on: Trichosporon beigelii
Escherichia coli HB101 = tested on: Escherichia coli HB101
[7] = tested on: Leishmania major MHOM/IL/67/JERICHO-II
[8] = tested on: Staphylococcus aureus Cowan 1
[9] = tested on: Bacillus subtilis DSM 347
[10] = tested on: Escherichia coli DH5alpha
[11] = tested on: Franconibacter helveticus DSM 18396
[12] = tested on: Kocuria rhizophila DSM 348
Bacillus cereus C737 = tested on: Bacillus cereus C737
Escherichia coli UB1005 = tested on: Escherichia coli UB1005
[13] = tested on: Pseudomonas aeruginosa PAO1
Aeromonas hydrophila = tested on: Aeromonas hydrophila
Vibrio harveyi = tested on: Vibrio harveyi
Vibrio parahaemolyticus = tested on: Vibrio parahaemolyticus
[14] = tested on: Bacillus subtilis CMCC 63501
[15] = tested on: Enterococcus faecalis ATCC 29212
[16] = tested on: Escherichia coli ATCC 25922
[17] = tested on: Salmonella enterica subsp. enterica serovar Pullorum C79-13
[18] = tested on: Salmonella enterica subsp. enterica serovar Typhimurium ATCC 14028
[19] = tested on: Staphylococcus aureus ATCC 29213
[20] = tested on: Staphylococcus epidermidis ATCC 12228

## CC[C@H](C)[C@H](NC(=O)[C@H](CCCCN)NC(=O)[C@H](CO)NC(=O)[C@H](Cc1ccccc1)NC(=O)[C@H](CC(C)C)NC(=O)[C@H](CCCCN)NC(=O)[C@H](CCC(=O)O)NC(=O)[C@H](CC(C)C)NC(=O)[C@H](CCCN=C(N)N)NC(=O)[C@H](CCCCN)NC(=O)[C@H](Cc1ccccc1)NC(=O)[C@@H](NC(=O)[C@H](CCCCN)NC(=O)[C@H](CCCCN)NC(=O)[C@H](C)N)C(C)C)C(=O)N[C@@H](Cc1c[nH]c2ccccc12)C(=O)N[C@@H](CC(N)=O)C(=O)N[C@@H](CC(=O)O)C(=O)N[C@@H](CCCCN)C(N)=O [AKKVFKRLEKLFSKIWNDK]
[1]
  MIC: ≥ 50 µM
[2]
  MIC: ≥ 50 µM
Bacillus subtilis
  MIC: 1.56 µM (≈ 3.71 µg/mL)
Botrytis cinerea
  MIC: 6.25 µM (≈ 14.9 µg/mL)
[3]
  MIC: 25 µM (≈ 59.4 µg/mL)
[4]
  MIC: 6.25 µM (≈ 14.9 µg/mL)
Escherichia coli
  MIC: 3.13 µM (≈ 7.44 µg/mL)
Fusarium verticillioides
  MIC: 25 µM (≈ 59.4 µg/mL)
[5]
  MIC: 1.56 µM (≈ 3.71 µg/mL)
Proteus vulgaris
  MIC: 3.13 µM (≈ 7.44 µg/mL)
Pseudomonas aeruginosa
  MIC: 6.25 µM (≈ 14.9 µg/mL)
Saccharomyces cerevisiae
  MIC: 25 µM (≈ 59.4 µg/mL)
Salmonella typhimurium
  MIC: 0.78 µM (≈ 1.85 µg/mL)
Staphylococcus aureus
  MIC: 6.25 µM (≈ 14.9 µg/mL)
[6]
  MIC: 3.13 µM (≈ 7.44 µg/mL)
Trichosporon beigelii
  MIC: 1.56 µM (≈ 3.71 µg/mL)

## CC[C@H](C)[C@H](NC(=O)[C@@H](NC(=O)[C@H](CC(=O)O)NC(=O)[C@H](C)NC(=O)[C@H](C)NC(=O)[C@H](C)NC(=O)CNC(=O)[C@H](CC(C)C)NC(=O)[C@H](C)NC(=O)[C@H](C)NC(=O)[C@H](CCCCN)NC(=O)CNC(=O)[C@H](C)NC(=O)[C@H](Cc1cnc[nH]1)NC(=O)[C@H](CC(C)C)NC(=O)[C@H](C)NC(=O)[C@H](CCSC)NC(=O)[C@@H](NC(=O)CNC(=O)[C@H](CC(C)C)NC(=O)[C@H](CCCCN)NC(=O)[C@H](CCCCN)NC(=O)[C@H](CC(C)C)NC(=O)[C@H](CCSC)NC(=O)[C@@H](NC(=O)[C@H](CCCCN)NC(=O)[C@H](Cc1c[nH]c2ccccc12)NC(=O)[C@H](CC(C)C)NC(=O)[C@H](C)N)[C@@H](C)O)[C@@H](C)O)[C@@H](C)O)C(N)=O [ALWKTMLKKLGTMALHAGKAALGAAADTI]
Escherichia coli HB101
  MIC: 2.7 µM (≈ 7.97 µg/mL)
[7]
  MIC: 6.1 µM (≈ 18 µg/mL)
[8]
  MIC: 2.7 µM (≈ 7.97 µg/mL)

## CSCC[C@H](NC(=O)[C@@H](NC(=O)CNC(=O)[C@H](CC(C)C)NC(=O)[C@H](CCCCN)NC(=O)[C@H](CCCCN)NC(=O)[C@H](CC(C)C)NC(=O)[C@H](CCSC)NC(=O)[C@@H](NC(=O)[C@H](CCCCN)NC(=O)[C@H](Cc1c[nH]c2ccccc12)NC(=O)[C@H](CC(C)C)NC(=O)[C@H](C)N)[C@@H](C)O)[C@@H](C)O)C(=O)N[C@@H](C)C(=O)N[C@@H](CC(C)C)C(=O)N[C@@H](Cc1cnc[nH]1)C(=O)N[C@@H](C)C(=O)NCC(=O)N[C@@H](CCCCN)C(N)=O [ALWKTMLKKLGTMALHAGK]
Escherichia coli HB101
  MIC: 3.6 µM (≈ 7.55 µg/mL)
[7]
  MIC: 17.9 µM (≈ 37.5 µg/mL)
[8]
  MIC: ≥ 35.9 µM

## CC[C@H](C)[C@H](NC(=O)CN)C(=O)NCC(=O)N[C@@H](CCCCN)C(=O)N[C@@H](Cc1ccccc1)C(=O)N[C@@H](CC(C)C)C(=O)N[C@@H](Cc1cnc[nH]1)C(=O)N[C@@H](CO)C(=O)N[C@@H](C)C(=O)N[C@@H](CCCCN)C(=O)N[C@@H](CCCCN)C(=O)N[C@@H](Cc1ccccc1)C(=O)NCC(=O)N[C@@H](CCCCN)C(=O)N[C@@H](C)C(=O)N[C@@H](Cc1ccccc1)C(=O)N[C@H](C(=O)N[C@@H](C)C(=O)N[C@@H](CCC(=O)O)C(=O)N[C@H](C(=O)N[C@@H](CCSC)C(=O)N[C@@H](CC(N)=O)C(=O)N[C@@H](CO)C(=O)O)[C@@H](C)CC)C(C)C [GIGKFLHSAKKFGKAFVAEIMNS]
[9]
  MIC: 1 µM (≈ 2.48 µg/mL)
[10]
  MIC: 16 µM (≈ 39.7 µg/mL)
[11]
  MIC: 8 µM (≈ 19.8 µg/mL)
[12]
  MIC: 8 µM (≈ 19.8 µg/mL)

## CC[C@H](C)[C@H](NC(=O)[C@H](CC(=O)O)NC(=O)[C@H](Cc1ccccc1)NC(=O)[C@H](CC(C)C)NC(=O)CN)C(=O)N[C@H](C(=O)N[C@@H](CCCCN)C(=O)N[C@@H](CCCCN)C(=O)N[C@H](C(=O)N[C@H](C(=O)NCC(=O)N[C@@H](C)C(=O)N[C@@H](C)C(=O)NCC(=O)N[C@@H](CO)C(=O)N[C@@H](CC(C)C)C(N)=O)C(C)C)C(C)C)C(C)C [GLFDIVKKVVGAAGSL]
Bacillus cereus C737
  MIC: ≥ 81.3 µM
Escherichia coli UB1005
  MIC: ≥ 81.3 µM
[13]
  MIC: > 81.3 µM

## CC[C@H](C)[C@H](NC(=O)[C@H](CC(C)C)NC(=O)[C@H](CCC(=O)O)NC(=O)CNC(=O)[C@H](CC(C)C)NC(=O)[C@H](Cc1cnc[nH]1)NC(=O)CNC(=O)[C@H](CCCCN)NC(=O)[C@@H](NC(=O)[C@H](Cc1ccccc1)NC(=O)[C@H](CCCCN)NC(=O)[C@H](CCCCN)NC(=O)[C@H](CS)NC(=O)[C@H](CC(C)C)NC(=O)[C@H](CO)NC(=O)[C@H](CCCCN)NC(=O)[C@H](CC(C)C)NC(=O)[C@H](CC(C)C)NC(=O)CN)C(C)C)C(=O)N[C@@H](CCC(=O)O)C(=O)N[C@@H](CCC(=O)O)C(=O)N[C@@H](CC(C)C)C(=O)N[C@H](C(=O)N[C@H](C(=O)N[C@@H](CO)C(=O)N[C@@H](CC(=O)O)C(=O)N[C@@H](CC(=O)O)C(=O)O)[C@@H](C)O)[C@@H](C)O [GLLKSLCKKFVKGHLGELIEELTTSDD]
Aeromonas hydrophila
  MIC: ≥ 96 µM
Bacillus subtilis
  MIC: ≥ 33.9 µM
Escherichia coli
  MIC: 17 µM (≈ 50.5 µg/mL)
Staphylococcus aureus
  MIC: 17 µM (≈ 50.5 µg/mL)
Vibrio harveyi
  MIC: 17 µM (≈ 50.5 µg/mL)
Vibrio parahaemolyticus
  MIC: ≥ 96 µM

## CC[C@H](C)[C@H](NC(=O)[C@H](C)NC(=O)[C@H](CC(C)C)NC(=O)[C@@H]1CCCN1C(=O)[C@@H](NC(=O)[C@H](CC(C)C)NC(=O)[C@H](CCC(N)=O)NC(=O)[C@H](Cc1c[nH]c2ccccc12)NC(=O)[C@H](Cc1ccccc1)NC(=O)[C@H](CCCN=C(N)N)NC(=O)[C@@H](N)CCCCN)C(C)C)C(=O)N[C@@H](CCCCN)C(=O)N[C@H](C(=O)N[C@@H](Cc1ccc(O)cc1)C(=O)N[C@@H](CCCN=C(N)N)C(=O)N[C@@H](C)C(=O)N[C@@H](Cc1c[nH]c2ccccc12)C(=O)N[C@@H](CCCCN)C(=O)N[C@@H](CCCN=C(N)N)C(=O)N[C@@H](CCCN=C(N)N)C(=O)O)[C@@H](C)CC [KRFWQLVPLAIKIYRAWKRR]
[14]
  MIC: 8 µM (≈ 21 µg/mL)
[15]
  MIC: 4 µM (≈ 10.5 µg/mL)
[16]
  MIC: 2 µM (≈ 5.26 µg/mL)
Escherichia coli UB1005
  MIC: 2 µM (≈ 5.26 µg/mL)
[17]
  MIC: 8 µM (≈ 21 µg/mL)
[18]
  MIC: 4 µM (≈ 10.5 µg/mL)
[19]
  MIC: 4 µM (≈ 10.5 µg/mL)
[20]
  MIC: 4 µM (≈ 10.5 µg/mL)

## CC[C@H](C)[C@H](NC(=O)[C@H](CCC(=O)O)NC(=O)[C@H](CC(N)=O)NC(=O)[C@H](CS)NC(=O)[C@@H](N)C(C)C)C(=O)NCC(=O)N[C@@H](CC(C)C)C(=O)N[C@@H](CC(C)C)C(=O)N[C@@H](CCCCN)C(=O)N[C@@H](CO)C(=O)N[C@@H](CC(C)C)C(=O)N[C@@H](CS)C(=O)N[C@@H](CCCCN)C(=O)N[C@@H](CCCCN)C(=O)N[C@@H](Cc1ccccc1)C(=O)N[C@H](C(=O)N[C@@H](CCCCN)C(=O)NCC(=O)N[C@@H](Cc1cnc[nH]1)C(=O)N[C@@H](CC(C)C)C(=O)NCC(=O)N[C@@H](CCC(=O)O)C(=O)O)C(C)C [VCNEIGLLKSLCKKFVKGHLGE]
Aeromonas hydrophila
  MIC: ≥ 96 µM
Bacillus subtilis
  MIC: ≥ 96 µM
Escherichia coli
  MIC: 33.9 µM (≈ 82 µg/mL)
Staphylococcus aureus
  MIC: 17 µM (≈ 41 µg/mL)
Vibrio harveyi
  MIC: ≥ 96 µM
Vibrio parahaemolyticus
  MIC: ≥ 96 µM
